From patent US10703746B2, “Mutant IDH1 inhibitors useful for treating cancer” (THE UNITED STATES OF AMERICA, AS REPRESENTED BY THE …, priority 2014, dated 2020)

How the values were obtained:
IDH1 R132C = IDH1 R132C (Homo sapiens, UniProt O75874, R132C); assay: IDH1 R132C enzymatic assay (NADPH depletion coupled to diaphorase/resazurin); assay type: biochemical
Procedure: (§1) Assays were conducted in a 1536-well black solid-bottom plate with a final assay volume of 9 μL.
For IDH1 R132C, 3 μL of enzyme (0.00032 mg/mL IDH1 […], 10% glycerol, 50 mM potassium phosphate pH 6.5, 5 mM MgCl2, 0.03% BSA) were added to the plate, followed by the addition of 23 nL of test compound in DMSO. The plate was lidded and incubated at room temperature for 30 minutes at which time 3 μL of substrate were added (0.012 mM NADPH, 0.6 mM α-KG, 10% glycerol, 50 mM potassium phosphate pH 6.5, 5 mM MgCl2, 0.03% BSA). […]

IDH1 R132H = IDH1 R132H (Homo sapiens, UniProt O75874, R132H); assay: IDH1 R132H enzymatic assay (NADPH depletion coupled to diaphorase/resazurin); assay type: biochemical
Procedure: as §1
Specifically, for IDH1 R132H, 3 μL of enzyme (4 mM β-ME, 0.0005 mg/mL IDH1 R132H, 150 mM NaCl, 20 mM Tris pH 7.5, 10 mM MgCl2, 0.05% BSA) were added to the plate, followed by the addition of 23 nL of test compound in DMSO. The plate was lidded and incubated at room temperature for 30 minutes at which time 3 μL of substrate were added (0.016 mM NADPH, 2 mM α-KG, 150 mM NaCl, 20 mM Tris pH 7.5, 10 mM MgCl2, 0.05% BSA). This reaction was incubated at room-temperature for 60 minutes at which time the detection mix was added (0.06 mg/mL diaphorase, 0.036 mM resazurin, 150 mM NaCl, 20 mM Tris pH 7.5, 10 mM MgCl2, 0.05% BSA). […]

[1] = IDH1 R132C enzymatic inhibition, IC50 class
[2] = IDH1 R132H enzymatic inhibition, IC50 class
[3] = enzymatic inhibition, IDH1 R132C
[4] = enzymatic inhibition, IDH1 R132H

Sequence of IDH1 R132C (O75874 whole entry R132C): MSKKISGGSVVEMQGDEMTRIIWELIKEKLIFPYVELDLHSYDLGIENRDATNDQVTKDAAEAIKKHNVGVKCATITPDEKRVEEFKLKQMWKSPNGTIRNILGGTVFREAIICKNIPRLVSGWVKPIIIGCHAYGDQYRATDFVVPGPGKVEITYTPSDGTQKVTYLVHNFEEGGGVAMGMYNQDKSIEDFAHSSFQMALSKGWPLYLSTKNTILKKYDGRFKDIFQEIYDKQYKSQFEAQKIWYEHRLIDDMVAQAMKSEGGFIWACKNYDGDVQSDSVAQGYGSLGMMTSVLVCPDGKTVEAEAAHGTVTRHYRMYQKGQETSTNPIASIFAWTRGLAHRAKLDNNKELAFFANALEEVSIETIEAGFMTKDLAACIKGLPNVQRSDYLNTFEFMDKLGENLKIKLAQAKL
Sequence of IDH1 R132H (O75874 whole entry R132H): as the sequence (O75874 whole entry R132C) above, with C132H counted along it

Structure (SMILES) | IC50 (IDH1 R132C; [1]) | IC50 (IDH1 R132H; [2]) | IC50 (IDH1 R132C; [3]) | IC50 (IDH1 R132H; [4])
COc1ccc(OC)c(-n2c(C)ccc(-c3nc(-c4ccc(Cl)cc4)cs3)c2=O)c1 [Compound 62] | 5000 to 20000 nM | > 20000 nM | – | –
CCc1cccc(CC)c1-n1c(C)c(C(=O)NCCCNC)cc(-c2nc(-c3ccc(Cl)cc3)cs2)c1=O [Compound 304] | 300 to 1000 nM | 1000 to 5000 nM | – | –
CCc1cccc(CC)c1-n1c(C)c(C(=O)NC2CCC(O)CC2)cc(-c2nc(-c3ccc(Cl)cc3)cs2)c1=O (centres unmarked) [Compound 219] | 1000 to 5000 nM | 1000 to 5000 nM | – | –
CCc1cccc(CC)c1-n1c2c(cc(-c3nc(-c4ccc(Cl)cc4)cs3)c1=O)C(=O)NC2 [Compound 74] | 5000 to 20000 nM | 1000 to 5000 nM | – | –
COc1ccc(OC)c(-n2c3c(cc(-c4nc(C)cs4)c2=O)C(=O)CC(C)(C)C3)c1 [Compound 124] | 5000 to 20000 nM | > 20000 nM | – | –
CCc1cccc(CC)c1-n1c(CC(C)C)c(C(=O)N2CCNCC2)cc(-c2nc(-c3ccc(N4CCOCC4)cc3)c(C)s2)c1=O [Compound 211] | 5000 to 20000 nM | 5000 to 20000 nM | – | –
CCc1cccc(CC)c1-n1c(CC(C)C)c(C(=O)N2CC(=O)N[C@H](C(=O)O)C2)cc(-c2nc(-c3ccc(Cl)cc3)cs2)c1=O [Compound 193] | 300 to 1000 nM | 300 to 1000 nM | – | –
CCc1cccc(C(=O)O)c1-n1c2c(cc(-c3nc(-c4ccc(Cl)cc4)cs3)c1=O)C(=O)CC(C)(C)C2 [Compound 58] | 1000 to 5000 nM | 300 to 1000 nM | – | –
COc1ccc(OC)c(-n2c3c(cc(-c4c[nH]c(-c5ccccc5)n4)c2=O)C(=O)CC(C)(C)C3)c1 [Compound 290] | 1000 to 5000 nM | 1000 to 5000 nM | – | –
CC1(C)CC(=O)c2cc(-c3nc(-c4ccc(Cl)cc4)cs3)c(=O)n(-c3ccccc3OC3CC3)c2C1 [Compound 25] | 300 to 1000 nM | 1000 to 5000 nM | – | –
CC(C)COc1ccccc1-n1c2c(cc(-c3nc(-c4ccc(Cl)cc4)cs3)c1=O)C(=O)CC(C)(C)C2 [Compound 256] | 300 to 1000 nM | 300 to 1000 nM | – | –
CCc1cccc(CC)c1-n1c(O)c(C(=O)CC(C)C)cc(-c2nc(-c3ccc(Cl)cc3)cs2)c1=O [Compound 392] | 5000 to 20000 nM | 5000 to 20000 nM | – | –
CC1(C)CC(=O)c2cc(-c3nc(-c4ccc(Cl)cc4)cs3)c(=O)n(-c3cscc3C(N)=O)c2C1 [Compound 429] | – | – | 5000 to 20000 nM | 5000 to 20000 nM
CCc1cccc(CC)c1-n1c2c(cc(-c3nc(-c4cccc(C)c4)cs3)c1=O)C(=O)CC(C)(C)C2 [Compound 240] | 1000 to 5000 nM | 5000 to 20000 nM | – | –
CCc1cccc(CC)c1-n1c2c(cc(-c3nc(-c4ccccc4F)cs3)c1=O)C(=O)CC(C)(C)C2 [Compound 226] | 1000 to 5000 nM | 1000 to 5000 nM | – | –
CN1CCN(Cc2ccccc2-n2c3c(cc(-c4nc(-c5ccc(Cl)cc5)cs4)c2=O)C(=O)CCC3)CC1 [Compound 440] | – | – | 5000 to 20000 nM | 5000 to 20000 nM

Structure (SMILES) | IC50 (IDH1 R132C; [1]) | IC50 (IDH1 R132H; [2]) | IC50 (IDH1 R132C; [3]) | IC50 (IDH1 R132H; [4])
CC1(C)CC(=O)c2cc(-c3nc(-c4ccc(Cl)cc4)cs3)c(=O)n(-c3ccccc3Oc3ccccc3)c2C1 [Compound 49] | < 300 nM | < 300 nM | – | –
CCc1cc(C)cc(CC)c1-n1c2c(cc(-c3nc(-c4ccc(Cl)cc4)cs3)c1=O)C(=O)CCC2 [Compound 531] | – | – | 1000 to 5000 nM | 5000 to 20000 nM
CCc1cccc(CC)c1-n1c(C(C)C)c(C(=O)NC)cc(-c2nc(-c3ccc(Cl)cc3)cs2)c1=O [Compound 32] | 300 to 1000 nM | 300 to 1000 nM | – | –
COc1cc(F)ccc1-n1c2c(cc(-c3nc(-c4ccc(Cl)cc4)cs3)c1=O)C(=O)CC(C)(C)C2 [Compound 557] | – | – | 1000 to 5000 nM | 1000 to 5000 nM
CCc1cccc(CC)c1-n1c(CC(C)C)c(C(=O)N2CCNCC2)cc(-c2coc(-c3ccc(Cl)cc3)n2)c1=O [Compound 643] | 300 to 1000 nM | 300 to 1000 nM | – | –
Cc1cc(-n2c3c(cc(-c4nc(-c5ccc(Cl)cc5)cs4)c2=O)C(=O)CC(C)(C)C3)n(C)n1 [Compound 72] | 1000 to 5000 nM | 1000 to 5000 nM | – | –
CCc1cccc(CC)c1-n1c2c(cc(-c3nc(-c4cccc(OC)c4)cs3)c1=O)C(=O)CC(C)(C)C2 [Compound 163] | > 20000 nM | > 20000 nM | – | –
CCc1cccc(CC)c1-n1c(CC(C)C)c(C(=O)NC[C@@H](NC(C)=O)C(=O)O)cc(-c2nc(-c3ccc(Cl)cc3)cs2)c1=O [Compound 29] | 1000 to 5000 nM | 1000 to 5000 nM | – | –
CC1(C)CC(=O)c2cc(-c3nc(-c4ccc(Cl)cc4)cs3)c(=O)n(-c3ccccc3)c2C1 [Compound 150] | 5000 to 20000 nM | 5000 to 20000 nM | – | –
CCc1cccc(CC)c1-n1c(CC(C)C)c(C(=O)N2CCNCC2)cc(-c2ccn(-c3ccccc3)n2)c1=O [Compound 104] | 1000 to 5000 nM | 1000 to 5000 nM | – | –
CCc1cccc(CC)c1-n1c(C(C)C)c(C(=O)N[C@H](C)CO)cc(-c2nc(-c3ccc(Cl)cc3)cs2)c1=O [Compound 47] | 1000 to 5000 nM | 1000 to 5000 nM | – | –
COC(=O)c1ccccc1-n1c2c(cc(-c3nc(-c4ccc(Cl)cc4)cs3)c1=O)C(=O)CC(C)(C)C2 [Compound 254] | 300 to 1000 nM | 300 to 1000 nM | – | –
COc1ccc(-n2c3c(cc(-c4nc(-c5ccc(Cl)cc5)cs4)c2=O)C(=O)CC(C)(C)C3)c(OC)c1 [Compound 597] | – | – | > 20000 nM | > 20000 nM
CN1CCN(Cc2ccccc2-n2c3c(cc(-c4nc(-c5ccc(Cl)cc5)cs4)c2=O)C(=O)CC(C)(C)C3)CC1 [Compound 547] | – | – | 5000 to 20000 nM | 5000 to 20000 nM
CCc1cccc(CC)c1-n1c2c(cc(-c3nc(-c4cccnc4)cs3)c1=O)C(=O)CC(C)(C)C2 [Compound 119] | 1000 to 5000 nM | 5000 to 20000 nM | – | –

Next, values leading:

IC50 (IDH1 R132C; [1]) | IC50 (IDH1 R132H; [2]) | IC50 (IDH1 R132C; [3]) | IC50 (IDH1 R132H; [4]) | Structure (SMILES)
– | – | < 300 nM | < 300 nM | CC(C)=Cc1c(C(=O)N2CCNCC2)cc(-c2nc(-c3ccc(Cl)cc3)cs2)c(=O)n1-c1ccccc1Cl [Compound 449]
< 300 nM | < 300 nM | – | – | CCc1cccc(CC)c1-n1c(C=C(C)C)c(C(=O)N2CCNCC2(C)C)cc(-c2nc(-c3ccc(Cl)cc3)cs2)c1=O [Compound 366]
< 300 nM | 300 to 1000 nM | – | – | CCc1cccc(CC)c1-n1c(CC(C)C)c(C(=O)N2CCNCC2C)cc(-c2nc(-c3ccc(Cl)cc3)cs2)c1=O (centres unmarked) [Compound 43]
– | – | 1000 to 5000 nM | 300 to 1000 nM | CCOc1ncc(C)cc1-n1c(C=C(C)C)c(C(=O)N2CCNCC2)cc(-c2nc(-c3ccc(C(F)F)cn3)cs2)c1=O [Compound 592]
5000 to 20000 nM | 5000 to 20000 nM | – | – | CCc1cccc(CC)c1-n1c(CC(C)C)c(C(=O)N2CCNCC2)cc(-c2nc(-c3ccc(C(N)=O)cc3)c(C)s2)c1=O [Compound 307]
< 300 nM | 300 to 1000 nM | – | – | CCc1cccc(CC)c1-n1c(C=C(C)C)c(C(=O)N2CCC3(CCNC3)C2)cc(-c2nc(-c3ccc(Cl)cc3)cs2)c1=O (centres unmarked) [Compound 320]
< 300 nM | < 300 nM | – | – | CCOc1ccc(OCC)c(-n2c(C=C(C)C)c(C(=O)N3CCNCC3)cc(-c3nc(-c4ccc(Cl)cc4)cs3)c2=O)c1 [Compound 348]
– | – | < 300 nM | < 300 nM | CCc1ccc(Cl)cc1-n1c(C=C(C)C)c(C(=O)N2CCNCC2)cc(-c2nc(-c3ccc(C(F)(F)F)cc3)cs2)c1=O [Compound 576]
– | – | 5000 to 20000 nM | 5000 to 20000 nM | CCc1cccc(CC)c1-n1c(C=C(C)C)c(C(=O)N2CCN(c3ccccc3C(F)(F)F)CC2)cc(-c2nc(-c3ccc(Cl)cc3)cs2)c1=O [Compound 480]
– | – | < 300 nM | < 300 nM | CCOc1ncc(C)cc1-n1c(C=C(C)C)c(C(=O)N2CCNCC2)cc(-c2nc(-c3ccc(C(F)(F)F)cc3)cs2)c1=O [Compound 587]
< 300 nM | 300 to 1000 nM | – | – | CCc1cccc(CC)c1-n1c(CC(C)C)c(C(=O)N2CCN[C@H](CO)C2)cc(-c2nc(-c3ccc(Cl)cc3)cs2)c1=O [Compound 283]
< 300 nM | < 300 nM | – | – | CCOc1ccc(-c2nc(-c3cc(C(=O)N4CCNCC4)c(CC(C)C)n(-c4c(CC)cccc4CC)c3=O)sc2C)cc1 [Compound 285]
300 to 1000 nM | < 300 nM | – | – | COc1ccccc1-n1c(C=C(C)C)c(C(=O)N2CCNCC2)cc(-c2nc(-c3ccc(Cl)cc3)cs2)c1=O [Compound 644]
< 300 nM | < 300 nM | – | – | CCOc1ccc(C)cc1-n1c(C=C(C)C)c(C(=O)N2CCNCC2)cc(-c2nc(-c3ccc(C(F)F)cc3)cs2)c1=O [Compound 386]
1000 to 5000 nM | 300 to 1000 nM | – | – | CCc1ncc(F)cc1-n1c(C=C(C)C)c(C(=O)N2CCNCC2)cc(-c2nc(-c3ccc(C(F)(F)F)nc3)cs2)c1=O [Compound 315]
< 300 nM | < 300 nM | – | – | CCOc1ccc(F)cc1-n1c(C=C(C)C)c(C(=O)N2CCNCC2)cc(-c2nc(-c3ccc(Cl)cc3)cs2)c1=O [Compound 381]
– | – | < 300 nM | < 300 nM | COc1ncccc1-n1c(C=C(C)C)c(C(=O)N2CCNCC2)cc(-c2nc(-c3ccc(Cl)cc3)cs2)c1=O [Compound 614]
< 300 nM | < 300 nM | – | – | CCc1cccc(CC)c1-n1c(C=C(C)C)c(C(=O)N2CCNCC2)cc(-c2nc(-c3ccc(C4CC4)cc3)cs2)c1=O [Compound 620]
